From patent US12098362B2, “Uses of Daldinia sp. or volatile organic compounds derived therefrom” (THE STATE OF ISRAEL, MINISTRY OF AGRICULTURE & RURAL …, priority 2015, dated 2024)

How the values were obtained:
[1] = test system: A. niger, B. cinerea, A. alternata, and P. digitatum; assay: Ability of commercially available VOC compounds to control growth of four test fungi; assay type: cell-based; settings: single commercially available compound
Procedure: (§1) All chemical compounds were purchased from Sigma (Rehovot, Israel) and were of the highest purity available. The bioactivity of the mixtures combined on the VOCs identified, was determined as follows: Petri dishes (90 mm, 80 mL air volume) containing 15 mL of media (PDA amended with 12 μg/mL tetracycline) were inoculated (triplicates, 2 plugs each) with the test fungi A. alternata and B. cinerea (in the same plate), P. digitatum and A. niger (in separate plates). A cup of an Eppendorf tube was placed in the middle of the plate to which increasing volumes (0-200 μL) of the mixture was added. Then, the plates were sealed with parafilm and incubated at room temperature for two days before comparing the growth of the test fungi in those plates to control plates in the absence of the mixture. The ability of two mixtures: Mixture A and Mixture B to control other plant pathogenic fungi was determined as described above except that the concentration of the mixture was constant (1 mL/L) and the growth inhibition was estimated after 6 days. The viability of the test fungi after exposure to the mixtures was examined as described for D. concentrica.
(§2) The activity of each chemical component of the mixture was examined separately as described for the mixtures. […]

M. javanica J2 larvae = assay: Phenotype of second stage juveniles under a stereomicroscope after exposure; assay type: in vivo, Meloidogyne javanica; settings: 0.05 mL/L preloaded to 25 mg of perlite particles; 48 hours at 25° C.
Procedure: FIGS. 20A-D show second stage juveniles' phenotype following exposure to D. concentrica culture, synthetic mixture, and the compound 4-heptanone. The nematodes were exposed to each condition for 48 hours at 25° C. in the dark before visualization. FIG. 20A. Control—non treated nematodes. FIG. 20B. Nematodes exposed to three D. concentrica culture plates (50 mm in diameter with 5 mL growth medium) pre-grown for 4 days. FIG. 20C. Nematodes exposed to 0.25 mL/L of synthetic mixture preloaded to 125 mg of perlite particles. FIG. 20D. Nematodes exposed to 0.05 mL/L of the compound 4-heptanone preloaded to 25 mg of perlite particles. The bar indicates […].
The effects of D. concentrica, synthetic mixture and the pure compound 4-heptanone were also examined visually under a stereomicroscope. The results are presented in FIGS. 20A-D wherein FIG. 20A represents non-treated nematodes; FIG. 20B represents nematodes exposed to three D. concentrica culture plates (50 mm in diameter with 5 mL growth medium) pre-grown for 4 days; FIG. 20C represents nematodes exposed to 0.25 mL/L of synthetic mixture preloaded to 125 mg of perlite particles; FIG. 20D represents nematodes exposed to 0.05 mL/L of the compound 4-heptanone preloaded to 25 mg of perlite particles.

Penicillium digitatum = assay: Chemical mixtures bioactivity test in sealed Petri dish; assay type: cell-based; settings: single compound
Procedure: as §1, §2

Aspergillus niger = assay: as above; assay type: cell-based; settings: single compound
Procedure: as §1, §2

COc1cc2ccccc2cc1O [3-methoxy-2-naphthol] was tested, and the “ability to control the growth of A. niger, B. cinerea, A. alternata, and P. digitatum” value [1] was “failed to inhibit fungal growth”.

CCCC(=O)CCC [Mixture 4-heptanone, 4-heptanone] was tested, and the “nematode phenotype (body shape, viability)” value (M. javanica J2 larvae) was “most of the nematodes demonstrated the typical straight body shape with nearly no curved appearance”.

For OCCc1ccccc1 [phenyl ethyl alcohol], the “ability to control the growth of A. niger, B. cinerea, A. alternata, and P. digitatum” value [1] was “failed to inhibit fungal growth”.

For methyl-1,4-cyclohexadiene, the “growth inhibition of P. digitatum” value (Penicillium digitatum) was 3.1% and the “growth inhibition of A. niger” value (Aspergillus niger) was 10.8%.
